# US20050197350A1, “Novel quinoline, tetrahydroquinazoline, and pyrimidine derivatives and methods of treatment related to the use thereof” (TAISHO PHARMACEUTICAL CO., LTD., priority 2003, published 2005)
# Counter-ions that a name gives are not always drawn.
# Molecular target: MCH receptor (Homo sapiens, UniProt Q99705)
# Assay: High throughput functional screening FLIPR/FDSS6000 (intracellular Ca2+ evoked by MCH)
# Format: cell-based
# Conditions: FLIPR/FDSS, antagonist activity vs 50 nM MCH; class by percent of control at 10^−7 M or IC50; read-out: class
# Outline: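 For antagonist testing, compound-treated cells (30 min, 37 °C) were stimulated with 50 nM MCH and intracellular Ca2+ followed by Fluo4 fluorescence on FLIPR/FDSS6000. Receptor was a constitutively active, non-endogenous MCH receptor; dye loading 4 μM Fluo4-AM, 1 h, 37 °C.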
row,IC50,Structure (SMILES)
1,< 50 nM,"COc1ccc(NC(=O)N[C@H]2CC[C@@H](Nc3ncc(C)c(N(C)C)n3)CC2)cc1OC [Example 3323, N-(3,4-dimethoxyphenyl)-N′-(cis-4-{[4-(dimethylamino)-5-methylpyrimidin-2-yl]amino}cyclohexyl)urea]"
2,> 200 nM,"Cc1cc(N(C)C)nc(N[C@H]2CC[C@@H](NC(=O)N(C)C(C)(C)c3cc(C(F)(F)F)cc(C(F)(F)F)c3)CC2)n1 [Example 3268, N-{1-[3,5-bis(trifluoromethyl)phenyl]-1-methylethyl}-N′-(cis-4-{[4-(dimethylamino)-6-methylpyrimidin-2-yl]amino}cyclohexyl)-N-methylurea]"
3,50 to 200 nM,"Cc1cc(N[C@H]2CC[C@@H](C(=O)N[C@H](C)c3ccc(Cl)cc3)CC2)nc2ccccc12 [Example 3305, cis-N-[(1R)-1-(4-chlorophenyl)ethyl]-4-[(4-methylquinolin-2-yl)amino]cyclohexanecarboxamide]"
4,> 200 nM,"Cc1cc(CN[C@H]2CC[C@@H](NC(=O)c3ccc(F)c(F)c3)CC2)nc2ccccc12 [Example 3366, 3,4-difluoro-N-(cis-4-{[(4-methylquinolin-2-yl)methyl]amino}cyclohexyl)benzamide]"
5,50 to 200 nM,"Cc1cc(N[C@H]2CC[C@@H](C(=O)N[C@@H](C)c3cc(C(F)(F)F)cc(C(F)(F)F)c3)CC2)nc2ccccc12 [Example 3309, cis-N-{(1S)-1-[3,5-bis(trifluoromethyl)phenyl]ethyl}-4-[(4-methylquinolin-2-yl)amino]cyclohexanecarboxamide]"
6,< 50 nM,"Cc1cnc(N[C@H]2CC[C@@H](NC(=O)[C@@H]3C[C@H]3c3cc(C(F)(F)F)cc(C(F)(F)F)c3)CC2)nc1N(C)C (relative stereo) [Example 3320, trans-2-[3,5-bis(trifluoromethyl)phenyl]-N-(cis-4-{[4-(dimethylamino)-5-methylpyrimidin-2-yl]amino}cyclohexyl)-cyclopropanecarboxamide]"
7,< 50 nM,"Cc1cnc(N[C@H]2CC[C@@H](NC(=O)[C@@H]3C[C@H]3c3ccc(Cl)cc3)CC2)nc1N(C)C (relative stereo) [Example 3316, trans-2-(4-chlorophenyl)-N-(cis-4-{[4-(dimethylamino)-5-methylpyrimidin-2-yl]amino}cyclohexyl)-cyclopropanecarboxamide]"
8,> 200 nM,"Cc1cnc(N[C@H]2CC[C@@H](C(=O)N[C@@H](C)c3ccccc3F)CC2)nc1N(C)C [Example 3295, cis-4-{[4-(dimethylamino)-5-methylpyrimidin-2-yl]amino}-N-[(1S)-1-(2-fluorophenyl)ethyl]cyclohexanecarboxamide]"
9,> 200 nM,"COc1nc(N[C@H]2CC[C@@H](NC(=O)c3cc(Cl)cc(Cl)c3)CC2)ncc1C [Example 3279, 3,5-dichloro-N-{cis-4-[(4-methoxy-5-methylpyrimidin-2-yl)amino]cyclohexyl}benzamide]"
10,< 50 nM,"Cc1cnc(N[C@H]2CC[C@@H](NC(=O)[C@@H]3C[C@H]3c3cccc(Cl)c3)CC2)nc1N(C)C (relative stereo) [Example 3317, trans-2-(3-chlorophenyl)-N-(cis-4-{[4-(dimethylamino)-5-methylpyrimidin-2-yl]amino}cyclohexyl)-cyclopropanecarboxamide]"
11,< 50 nM,"Cc1cnc(N[C@H]2CC[C@@H](NC(=O)Nc3ccc(Br)cc3)CC2)nc1N(C)C [Example 3335, N-(4-bromophenyl)-N′-(cis-4-{[4-(dimethylamino)-5-methylpyrimidin-2-yl]amino}cyclohexyl)urea]"

# Same assay, conditions: FLIPR/FDSS, antagonist activity vs 50 nM MCH; class by percent of control at 10^−7 M or IC50; table after the classification; read-out: class
row,IC50,Structure (SMILES)
1,< 50 nM,"Cc1cc(N(C)C)nc(N[C@H]2CC[C@@H](NC(=O)c3cc(F)cc(Cl)c3)CC2)n1 [Example 3384, 3-Chloro-N-[cis-4-(4-dimethylamino6-methyl-pyrimidin-2-ylamino)-cyclohexyl]5-fluoro-benzamide hydrochloride]"
2,> 200 nM,"Cc1cc(N[C@H]2CC[C@@H](NC(=O)c3ccncc3)CC2)nc2ccccc12 [Example 3183, N-[cis-4-(4-Methyl-quinolin-2-ylamino)-cyclohexyl]-isonicotinamide hydrochloride]"
3,< 50 nM,"Cc1cc(N[C@H]2CC[C@@H](NC(=O)c3cccnc3Oc3ccc(F)c(Cl)c3)CC2)nc2ccccc12 [Example 3096, 2-(3-Chloro-4-fluoro-phenoxy)-N-[cis-4-(4-methyl-quinolin-2-ylamino)-cyclohexyl]-nicotinamide hydrochloride]"
4,50 to 200 nM,"O=C(N[C@H]1CC[C@@H](Nc2ccc3ccccc3n2)CC1)c1cccnc1Oc1ccc(F)c(Cl)c1 [Example 3060, 2-(3-Chloro-4-fluoro-phenoxy)-N-[cis-4-(quinolin-2-ylamino)-cyclohexyl]-nicotinamide hydrochloride]"
5,> 200 nM,"O=C(N[C@H]1CC[C@@H](Nc2ccc3ccccc3n2)CC1)c1cc(C(F)(F)F)cc(C(F)(F)F)c1 [Example 3148, N-[cis-4-(Quinolin-2-ylamino)-cyclohexyl]-3,5-bis-trifluoromethyl-benzamide hydrochloride]"
6,< 50 nM,"Cc1cc(N[C@H]2CC[C@@H](NC(=O)c3cncc(F)c3)CC2)nc2ccccc12 [Example 3397, 5-Fluoro-N-[cis-4-(4-methyl-quinolin-2-ylamino)-cyclohexyl]-nicotinamide]"
7,< 50 nM,"COc1cccc(C(=O)N[C@H]2CC[C@@H](Nc3ncc(C)c(N(C)C)n3)CC2)c1 [Example 3122, N-[cis-4-(4-Dimethylamino-5-methyl-pyrimidin-2-ylamino)-cyclohexyl]-3-methoxy-benzamide hydrochloride]"
8,50 to 200 nM,"Cc1cc(N[C@H]2CC[C@@H](NC(=O)CNc3ccc(Cl)c(Cl)c3)CC2)nc2ccccc12 [Example 3103, 2-(3,4-Dichloro-phenylamino)-N-[cis-4-(4-methyl-quinolin-2-ylamino)-cyclohexyl]-acetamide dihydrochloride]"
9,< 50 nM,"Cc1cc(N[C@H]2CC[C@@H](NC(=O)c3cccnc3Oc3ccc(Cl)cc3)CC2)nc2ccccc12 [Example 3093, 2-(4-Chloro-phenoxy)-N-[cis-4-(4-methyl-quinolin-2-ylamino)-cyclohexyl]-nicotinamide hydrochloride]"
10,< 50 nM,"COc1cccc(OCC(=O)N[C@H]2CC[C@@H](Nc3nccc(N(C)C)n3)CC2)c1 [Example 3394, N-[cis-4-(4-Dimethylamino-pyrimidin-2-ylamino)-cyclohexyl]-2-(3-methoxy-phenoxy)-acetamide hydrochloride]"
11,< 50 nM,"O=C(N[C@H]1CC[C@@H](Nc2ccc3ccccc3n2)CC1)c1ccc(Cl)c(Cl)c1 [Example 3040, 3,4-Dichloro-N-[cis-4-(quinolin-2-ylamino)-cyclohexyl]-benzamide hydrochloride]"
12,< 50 nM,"Cc1cc(C(=O)N[C@H]2CC[C@@H](Nc3ccc4ccccc4n3)CC2)ccc1F [Example 3046, 4-Fluoro-3-methyl-N-[cis-4-(quinolin-2-ylamino)-cyclohexyl]-benzamide hydrochloride]"
13,< 50 nM,"O=C(N[C@H]1CC[C@@H](Nc2ccc3ccccc3n2)CC1)C(c1ccccc1)c1ccccc1 [Example 3052, 2,2-Diphenyl-N-[cis-4-(quinolin-2-ylamino)-cyclohexyl]-acetamide hydrochloride]"
14,< 50 nM,"Cc1cccc(C(=O)N[C@H]2CC[C@@H](Nc3ccc4ccccc4n3)CC2)c1 [Example 3033, 3-Methyl-N-[cis-4-(quinolin-2-ylamino)-cyclohexyl]-benzamide hydrochloride]"
15,< 50 nM,"O=C(N[C@H]1CC[C@@H](Nc2ccc3ccccc3n2)CC1)c1cccc(O)c1 [Example 3146, 3-Hydroxy-N-[cis-4-(quinolin-2-ylamino)-cyclohexyl]-benzamide hydrochloride]"
16,> 200 nM,"CN(C)c1ccnc(N[C@H]2CC[C@@H](CNC(=O)c3cccnc3Oc3ccccc3)CC2)n1 [Example 3145, N-[cis-4-(4-Dimethylamino-pyrimidin-2-ylamino)-cyclohexylmethyl]-2-phenoxy-nicotinamide hydrochloride]"
17,< 50 nM,"Cc1cc(N[C@H]2CC[C@@H](NC(=O)COc3ccc(Cl)c(Cl)c3)CC2)nc2ccccc12 [Example 3101, 2-(3,4-Dichloro-phenoxy)-N-[cis-4-(4-methyl-quinolin-2-ylamino)-cyclohexyl]-acetamide hydrochloride]"
18,> 200 nM,"O=C(N[C@H]1CC[C@@H](Nc2ncccn2)CC1)c1ccc(F)c(F)c1 [Example 3144, 3,4-Difluoro-N-[cis-4-(pyrimidin-2-ylamino)-cyclohexyl]-benzamide hydrochloride]"
19,50 to 200 nM,"CN(C)c1cc(N[C@H]2CC[C@@H](CNC(=O)Nc3cccc(Cl)c3Cl)CC2)nc2ccccc12 [Example 3191, 1-(2,3-Dichloro-phenyl)-3-[cis-4-(4-dimethylamino-quinolin-2-ylamino)-cyclohexylmethyl]-urea hydrochloride]"
20,< 50 nM,"COC(=O)c1cccc(C(=O)N[C@H]2CC[C@@H](Nc3cc(C)c4ccccc4n3)CC2)c1 [Example 3174, N-[cis-4-(4-Methylquinolin-2-ylamino)-cyclohexyl]-isophthalamic acid-methyl ester hydrochloride]"
21,< 50 nM,"COc1ccc(Oc2ncccc2C(=O)N[C@H]2CC[C@@H](Nc3cc(C)c4ccccc4n3)CC2)cc1 [Example 3095, 2-(4-Methoxy-phenoxy)-N-[cis-4-(4-methyl-quinolin-2-ylamino)-cyclohexyl]-nicotinamide hydrochloride]"
22,< 50 nM,"Cc1cnc(N[C@H]2CC[C@@H](NC(=O)c3cccnc3Oc3ccc(F)cc3)CC2)nc1N(C)C [Example 3123, N-[cis-4-(4-Dimethylamino-5-methyl-pyrimidin-2-ylamino)-cyclohexyl]-2-(4-fluoro-phenoxy)-nicotinamide hydrochloride]"
